# Legend:
# Assay in all cases: pNP release at […] nm in whole cells of complemented P. putida phoX mutant
# PhoA1^Fj = molecular target: T1, PhoA1^Fj (Flavobacterium johnsoniae, UniProt A5FEV6); format: cell-based, Pseudomonas putida; conditions: 10 mM pNPP; growth medium or Tris-HCl pH 9.4; 28 °C
# T1 construct: gene Fjoh_3249; full gene expressed from pBBR1MCS-km in P. putida BIRD-1 phoX mutant; whole-cell assay
# T1 sequence (A5FEV6 19-607): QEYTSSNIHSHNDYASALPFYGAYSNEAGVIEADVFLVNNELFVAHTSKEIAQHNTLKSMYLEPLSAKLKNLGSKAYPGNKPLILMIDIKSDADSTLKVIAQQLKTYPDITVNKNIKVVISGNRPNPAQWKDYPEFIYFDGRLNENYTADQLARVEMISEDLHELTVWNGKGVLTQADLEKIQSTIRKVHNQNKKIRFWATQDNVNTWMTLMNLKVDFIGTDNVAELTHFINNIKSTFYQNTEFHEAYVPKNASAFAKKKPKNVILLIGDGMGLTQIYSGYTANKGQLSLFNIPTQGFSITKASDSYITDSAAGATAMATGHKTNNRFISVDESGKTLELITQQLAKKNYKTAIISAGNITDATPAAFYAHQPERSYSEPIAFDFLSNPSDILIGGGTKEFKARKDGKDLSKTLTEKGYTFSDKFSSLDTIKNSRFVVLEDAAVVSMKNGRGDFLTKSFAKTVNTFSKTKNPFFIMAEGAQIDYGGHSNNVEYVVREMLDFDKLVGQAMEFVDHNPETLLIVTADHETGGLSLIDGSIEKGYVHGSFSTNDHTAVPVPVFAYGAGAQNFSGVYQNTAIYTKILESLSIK
# PafA^Fj = molecular target: T2, PafA^Fj (Flavobacterium johnsoniae, UniProt A5FP14); format: cell-based; conditions: 10 mM pNPP; growth medium or Tris-HCl pH 9.4; 28 °C
# T2 construct: gene Fjoh_0023; full gene expressed from pBBR1MCS-km in P. putida BIRD-1 phoX mutant; whole-cell assay
# T2 sequence (A5FP14 19-539): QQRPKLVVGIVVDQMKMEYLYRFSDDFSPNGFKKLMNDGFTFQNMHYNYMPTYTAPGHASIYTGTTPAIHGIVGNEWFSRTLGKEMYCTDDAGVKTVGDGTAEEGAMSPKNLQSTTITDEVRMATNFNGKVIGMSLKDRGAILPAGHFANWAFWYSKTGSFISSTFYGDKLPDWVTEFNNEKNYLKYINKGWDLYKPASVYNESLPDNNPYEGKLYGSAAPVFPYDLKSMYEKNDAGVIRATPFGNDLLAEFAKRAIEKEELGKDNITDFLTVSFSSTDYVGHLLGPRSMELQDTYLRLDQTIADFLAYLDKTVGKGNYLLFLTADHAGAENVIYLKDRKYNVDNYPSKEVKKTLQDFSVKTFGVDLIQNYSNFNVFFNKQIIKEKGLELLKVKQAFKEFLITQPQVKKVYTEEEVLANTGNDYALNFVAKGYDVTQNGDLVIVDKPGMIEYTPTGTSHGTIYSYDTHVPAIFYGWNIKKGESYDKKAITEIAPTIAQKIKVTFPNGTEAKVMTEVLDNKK
# PhoA2^Fj = molecular target: T3, PhoA2^Fj (Flavobacterium johnsoniae, UniProt A5FF14); format: cell-based; conditions: 10 mM pNPP; growth medium or Tris-HCl pH 9.4; 28 °C
# T3 construct: gene Fjoh_3187; full gene expressed from pBBR1MCS-km in P. putida BIRD-1 phoX mutant; whole-cell assay
# T3 sequence (A5FF14 27-468): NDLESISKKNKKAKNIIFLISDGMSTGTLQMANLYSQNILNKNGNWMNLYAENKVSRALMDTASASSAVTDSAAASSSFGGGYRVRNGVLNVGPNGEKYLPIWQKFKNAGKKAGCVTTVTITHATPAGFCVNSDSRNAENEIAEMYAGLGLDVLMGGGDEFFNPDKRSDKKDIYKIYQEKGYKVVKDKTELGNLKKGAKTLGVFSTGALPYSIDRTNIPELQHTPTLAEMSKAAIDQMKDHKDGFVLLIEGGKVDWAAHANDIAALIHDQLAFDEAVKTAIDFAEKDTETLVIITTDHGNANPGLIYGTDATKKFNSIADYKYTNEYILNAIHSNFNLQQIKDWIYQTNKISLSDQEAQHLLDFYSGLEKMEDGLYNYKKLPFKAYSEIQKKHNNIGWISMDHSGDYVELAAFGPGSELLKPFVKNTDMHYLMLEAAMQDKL
# PhoA^Ec = molecular target: T4, PhoA^Ec (Escherichia coli, UniProt P00634); format: cell-based, Pseudomonas putida; conditions: 10 mM pNPP; growth medium or Tris-HCl pH 9.4; 28 °C
# T4 construct: full gene expressed in P. putida BIRD-1 phoX mutant; whole-cell assay
# T4 sequence (P00634 22-471): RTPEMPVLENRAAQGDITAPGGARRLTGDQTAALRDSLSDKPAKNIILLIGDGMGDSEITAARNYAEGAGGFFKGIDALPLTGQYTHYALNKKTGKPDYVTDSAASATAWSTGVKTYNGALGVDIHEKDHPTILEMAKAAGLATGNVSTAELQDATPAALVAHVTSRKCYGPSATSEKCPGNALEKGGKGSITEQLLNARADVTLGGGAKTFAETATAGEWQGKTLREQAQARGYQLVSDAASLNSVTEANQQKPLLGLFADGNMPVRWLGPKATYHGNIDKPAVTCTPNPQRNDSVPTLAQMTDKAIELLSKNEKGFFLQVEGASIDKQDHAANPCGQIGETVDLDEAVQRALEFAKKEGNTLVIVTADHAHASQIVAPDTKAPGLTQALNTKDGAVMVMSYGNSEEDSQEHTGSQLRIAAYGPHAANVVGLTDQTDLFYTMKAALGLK
# PafA^Cp2 = molecular target: T5, PafA^Cp2 (Chitinophaga pinensis, UniProt A0A979G1Z1); format: cell-based; conditions: 10 mM pNPP
# T5 construct: gene Cpin_1665; synthesized gene expressed in P. putida BIRD-1 phoX mutant; whole-cell assay
# T5 sequence (A0A979G1Z1 29-568): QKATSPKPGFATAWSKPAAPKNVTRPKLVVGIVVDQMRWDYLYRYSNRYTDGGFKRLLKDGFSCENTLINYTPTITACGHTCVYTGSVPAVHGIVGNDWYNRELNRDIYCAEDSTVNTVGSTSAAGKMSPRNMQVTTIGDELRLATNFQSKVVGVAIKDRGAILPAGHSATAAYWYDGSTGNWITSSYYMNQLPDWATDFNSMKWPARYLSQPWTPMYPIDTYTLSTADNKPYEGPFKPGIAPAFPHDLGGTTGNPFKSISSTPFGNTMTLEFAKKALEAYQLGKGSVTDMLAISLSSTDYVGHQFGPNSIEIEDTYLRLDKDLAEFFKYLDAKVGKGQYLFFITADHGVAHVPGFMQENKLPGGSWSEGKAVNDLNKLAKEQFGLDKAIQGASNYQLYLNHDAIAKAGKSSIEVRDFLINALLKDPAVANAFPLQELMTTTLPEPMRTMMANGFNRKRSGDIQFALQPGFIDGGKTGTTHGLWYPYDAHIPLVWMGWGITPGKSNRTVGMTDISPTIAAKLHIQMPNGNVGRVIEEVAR
# PafA^Cp1 = molecular target: T6, PafA^Cp1 (Chitinophaga pinensis, UniProt A0A979GMC5); format: cell-based; conditions: 10 mM pNPP
# T6 construct: gene Cpin_0724; synthesized gene expressed in P. putida BIRD-1 phoX mutant; whole-cell assay
# T6 sequence (A0A979GMC5 26-545): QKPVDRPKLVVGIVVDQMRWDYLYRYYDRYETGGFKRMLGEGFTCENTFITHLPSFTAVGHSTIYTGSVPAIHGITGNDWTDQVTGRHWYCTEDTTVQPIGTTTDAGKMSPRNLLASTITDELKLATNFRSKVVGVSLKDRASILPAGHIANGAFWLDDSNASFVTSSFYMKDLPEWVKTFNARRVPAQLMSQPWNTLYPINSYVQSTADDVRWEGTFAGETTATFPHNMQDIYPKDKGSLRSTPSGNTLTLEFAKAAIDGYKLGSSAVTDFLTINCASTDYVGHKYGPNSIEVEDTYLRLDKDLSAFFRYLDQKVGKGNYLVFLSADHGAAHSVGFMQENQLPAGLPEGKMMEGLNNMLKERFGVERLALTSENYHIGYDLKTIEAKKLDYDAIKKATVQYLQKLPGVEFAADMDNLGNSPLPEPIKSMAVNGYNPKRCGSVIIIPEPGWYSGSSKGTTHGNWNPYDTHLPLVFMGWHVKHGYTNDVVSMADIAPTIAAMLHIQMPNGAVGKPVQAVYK
compound,measurement,setting,value
O=[N+]([O-])c1ccc(OP(=O)(O)O)cc1 [para-nitrophenyl phosphate],PME activity,PhoA1^Fj,"cells producing PhoA1^Fj (+pBXphoA1^Fj), PhoA2^Fj (+pBXphoA2^Fj), or PafA^Fj (+pBXpafA^Fj) also restored PME activity"
same,PME activity,PafA^Fj,"or PafA^Fj (+pBXpafA^Fj) also restored PME activity, confirming their function as PMEs"
same,PME activity,PhoA2^Fj,"cells producing PhoA1^Fj (+pBXphoA1^Fj), PhoA2^Fj (+pBXphoA2^Fj), or PafA^Fj (+pBXpafA^Fj) also restored PME activity"
same,PME activity,PhoA^Ec,Plasmid copies of either phoX^BIRD (+pBXphoX^BIRD) or the E. coli phoA (+pBXphoA^Ec) restored PME activity
same,PME activity,PafA^Cp2,demonstrating both are functional Pi-insensitive PMEs
same,PME activity,PafA^Cp1,demonstrating both are functional Pi-insensitive PMEs

# Source: publication PMC8812569, “A widely distributed phosphate-insensitive phosphatase presents a route for rapid organophosphorus remineralization in the biosphere” (Proceedings of the National Academy of Sciences of the …, 2022)
